Test results as given in ChEMBL document CHEMBL2396642, “Discovery of novel series of 6-benzyl substituted 4-aminocarbonyl-1,4-diazepane-2,5-diones as human chymase inhibitors using structure-based drug design” (Bioorg Med Chem, 2013).
pIC50: −log10 of the molar value.

Experiments:
[1] = molecular target: T1, Cathepsin G (Homo sapiens, UniProt P08311); assay: Inhibition of human neutrophil cathepsin G using Boc-Gln-Ala-Arg-MCA as substrate preincubated for 10 mins followed by substrate addition measured after 10 mins by fluorescence assay
T1 sequence (P08311 whole entry): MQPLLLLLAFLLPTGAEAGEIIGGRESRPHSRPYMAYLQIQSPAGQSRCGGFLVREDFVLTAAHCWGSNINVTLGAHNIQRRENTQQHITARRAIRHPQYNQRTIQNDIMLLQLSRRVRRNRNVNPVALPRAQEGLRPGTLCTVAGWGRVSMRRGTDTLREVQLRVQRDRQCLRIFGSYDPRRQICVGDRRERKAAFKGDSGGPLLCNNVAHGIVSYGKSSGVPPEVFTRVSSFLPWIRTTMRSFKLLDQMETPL

[2] = Inhibition of bovine pancreatic alpha-chymotrypsin using Suc-Ala-Ala-Pro-Phe-MCA as substrate preincubated for 10 mins followed by substrate addition measured after 10 mins by fluorescence assay; parameters: species or system Bos taurus
[3] = molecular target: T2, Neutrophil elastase (Homo sapiens, UniProt P08246); assay: Inhibition of human neutrophil elastase using MeOSuc-Ala-Ala-Pro-Val-pNA as substrate preincubated for 10 mins followed by substrate addition measured after 10 mins by fluorescence assay
T2 sequence (P08246 whole entry): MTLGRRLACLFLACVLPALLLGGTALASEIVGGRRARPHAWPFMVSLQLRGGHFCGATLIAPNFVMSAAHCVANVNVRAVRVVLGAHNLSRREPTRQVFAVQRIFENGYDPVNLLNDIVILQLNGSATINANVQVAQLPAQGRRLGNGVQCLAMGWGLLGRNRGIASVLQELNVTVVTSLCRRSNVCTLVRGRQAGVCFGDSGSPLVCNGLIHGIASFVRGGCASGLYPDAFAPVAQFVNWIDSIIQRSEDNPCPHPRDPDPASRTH

Row | SMILES | pIC50 [1] | pIC50 [2] | pIC50 [3]
1 | CC[C@@H](NC(=O)N1CC(=O)NCC(Cc2cc(Cl)ccc2OC)C1=O)C(=O)Nc1nnn[nH]1 (some centres undefined) | < 5.00 | < 5.00 | < 5.00
2 | CC[C@@H](NC(=O)N1CC(=O)NC[C@@H](Cc2cc(Cl)ccc2OC)C1=O)c1cc(C(=O)O)co1 | 5.11 | < 4.06 | < 4.00
3 | CC[C@@H](NC(=O)N1CC(=O)NC[C@@H](Cc2cc(Cl)ccc2OC)C1=O)c1ccc(C(=O)O)c(N)c1 | – | < 4.00 | 4.00

Second part, the compound after the results:

Row | pIC50 [1] | pIC50 [2] | pIC50 [3] | SMILES
4 | 5.07 | < 5.00 | < 5.00 | CC[C@@H](NC(=O)N1CC(=O)NCC(Cc2cc(Cl)ccc2OC)C1=O)C(=O)Nc1cccc(C(=O)O)c1 (some centres undefined)
5 | < 5.00 | < 5.00 | < 5.00 | CC[C@@H](NC(=O)N1CC(=O)NCC(Cc2cc(Cl)ccc2OC)C1=O)C(=O)Nc1cccc(N)c1 (some centres undefined)
